Experimental data published in article PMC7485140 (Clinical Pharmacology and Therapeutics, 2020).
Like-named read-outs stand apart in the source and are kept apart here. Starred links: 1 amine or outer side, 2 acyl side, 3 side chain; linkers in the order of their positions; H or OH if unused. Positions of bridges follow the written chain, without caps; N, C: chain ends. Non-standard residues stand in square brackets, D forms with d. Residues, ends and D or L forms follow the SMILES beside them. *: point of attachment. pTerphenylCO(4''-OnC5H11) = CCCCCOc1ccc(-c2ccc(-c3ccc(C(=O)*)cc3)cc2)cc1; Orn(4R-OH,5R-OH) = O=C([C@H](C[C@@H](O)[C@@H](O)N[*:3])N[*:1])[*:2]; hTyr(3S-OH,4S-OH) = N[C@H](C(=O)O)[C@H](O)[C@@H](O)c1ccc(O)cc1; Pro(3S-OH,4S-Me) = C[C@H]1CN[C@H](C(=O)O)[C@H]1O; Hyp = O=C(O)[C@@H]1C[C@@H](O)CN1

Assays:
[1] = cited from earlier work
[2] = cited from earlier work; remark: listed apart in the source
[3] = adult patients with serious fungal infections; cited from earlier work
[4] = Pooled population PK analysis of i.v. anidulafungin; format: in vivo, human; conditions: patients aged 1 month to < 2 years, n = 23, i.v. LD/MD 3.0/1.5 mg/kg q.d., weight-corrected, final PK model; for Vd: Vss
[5] = infant patients at high risk for invasive fungal infections
[6] = neonatal patients at high risk for invasive fungal infections

CCCCCOc1ccc(-c2ccc(-c3ccc(C(=O)N[C@H]4C[C@@H](O)[C@@H](O)NC(=O)[C@@H]5[C@@H](O)[C@@H](C)CN5C(=O)[C@H]([C@@H](C)O)NC(=O)[C@H]([C@H](O)[C@@H](O)c5ccc(O)cc5)NC(=O)[C@@H]5C[C@@H](O)CN5C(=O)[C@H]([C@@H](C)O)NC4=O)cc3)cc2)cc1 [anidulafungin] ({pTerphenylCO(4''-OnC5H11)}-[Orn(4R-OH,5R-OH)]T[Hyp][hTyr(3S-OH,4S-OH)]T[Pro(3S-OH,4S-Me)]; lactam 1-C)
mean CL [1, 5]: 0.25 mL/min/kg | mean Vss [1, 5]: 0.9 L/kg | median AUCss [1, 5]: 97700 ng·h/mL | mean CL [1, 6]: 0.333 mL/min/kg | mean Vss [1, 6]: 1.7 L/kg | median AUCss [1, 6]: 74900 ng·h/mL | chemical stability in blood ([2]; blood at physiologic temperature and pH): slow chemical degradation | hepatic metabolism [2]: not metabolized by the liver | renal CL ([2]; negligible renal clearance): < 1% | mean CL [3]: 1.0 L/h | clearance ([4]; human, plasma, iv, CL, Mean (SD), SD): 0.35 mL/min/kg | Vd ([4]; human, plasma, iv, Mean (SD), SD): 0.77 L/kg | Vd ([4]; human, plasma, iv, Median (range)): 0.75 L/kg | CL, Median (range) [4]: 0.021 (0.006–0.032) L/hour/kg
